Common to all, as to format: functional
A short description of test [1]: Cytotoxicity against human MCF7 cells after 48 hrs by MTT assay. Particulars: MCF7, 48 h.
A further test concerns Candida albicans. Description: Antifungal activity against Candida albicans after 24 hrs by two fold dilution method.
Test [2] is described as follows: Antifungal activity against Microsporum audouinii after 24 hrs by two fold dilution method.
Test [3] can be described thus: Antioxidant activity assessed as reduction in AAPH free radical-induced linoleic acid peroxidation activity measured at 100 ug/ml by UV spectroscopic analysis. More on the design: scale not given: the % may be the effect or the level left.
The subject of the next test is Staphylococcus aureus. Put plainly: Antibacterial activity against Staphylococcus aureus after 24 hrs by two fold dilution method.
For the next test, the system named is Escherichia coli. Put plainly: Antibacterial activity against Escherichia coli after 24 hrs by two fold dilution method.
A short description of test [4]: Antioxidant activity assessed as ABTS radical scavenging activity at 100 ug/ml after 30 mins.
The nature of test [5]: Cytotoxicity against human HepG2 cells after 48 hrs by MTT assay. Particulars: HepG2, 48 h.
The next test deals with Pseudomonas aeruginosa. Description: Antibacterial activity against Pseudomonas aeruginosa after 24 hrs by two fold dilution method.
For test [6], the system named is Staphylococcus epidermidis. Description: Antibacterial activity against Staphylococcus epidermidis after 24 hrs by two fold dilution method.
Test [7] in a line: Cytotoxicity against human HeLa cells after 48 hrs by MTT assay.
The next test deals with Klebsiella pneumoniae. Put plainly: Antibacterial activity against Klebsiella pneumoniae after 24 hrs by two fold dilution method.
The next test deals with Aspergillus niger. Description: Antifungal activity against Aspergillus niger after 24 hrs by two fold dilution method.
The nature of test [8]: Antifungal activity against Cryptococcus neoformans after 24 hrs by two fold dilution method.

In brackets after ≈: the same amount, converted by molar mass.

As for `CC(C)=CCC/C(C)=C\C(N1CCOCC1)N1C(c2ccccc2)CC(O)N1c1ccc([N+](=O)[O-])cc1[N+](=O)[O-]` (stereo not given), the figures for the concentration for 50% growth inhibition (GI50) in test [1], in test [5] and in test [7] were 7.8 µM, 38.1 µM and 13.8 µM, respectively. The results for the median lethal concentration (LC50) in [1], in test [5] and in test [7] were 40.4 µM, > 100 µM and 71.4 µM, respectively. Moreover, the TGI in [1] was found to be 21.9 µM; in test [5] it was 69.1 µM; in test [7], 29.6 µM. Further, the MIC was 0.5 µg/mL (≈ 0.906 µM) against Candida albicans; 16 µg/mL (≈ 29 µM) in [2]; > 100 µg/mL in the test on Staphylococcus aureus; 64 µg/mL (≈ 116 µM) in the test with Escherichia coli; 1 µg/mL (≈ 1.81 µM) against Pseudomonas aeruginosa; 8 µg/mL (≈ 14.5 µM) in [6]. Besides, the minimum inhibitory concentration (MIC) stood at 8 µg/mL (≈ 14.5 µM) with Klebsiella pneumoniae, 8 µg/mL (≈ 14.5 µM) against Aspergillus niger and 32 µg/mL (≈ 58 µM) in test [8]. Also, the Activity in [3] worked out at 84.5%; in test [4], 91.3%.

As to `O=[N+]([O-])c1ccc(N2C(O)CC(c3ccccc3)N2C(c2cncs2)N2CCOCC2)c([N+](=O)[O-])c1` (stereo not given), the concentration for 50% growth inhibition (GI50) came out at 34 µM in [1], 32 µM in [5] and 37.9 µM in [7]. The values for the 50% lethal concentration (LC50) in test [1], in test [5] and in [7] were > 100 µM, 89.3 µM and 78.9 µM, respectively. For the same compound, the TGI in test [1] turned out to be 67.4 µM; in test [5], 61.3 µM; in test [7] it was 51.9 µM. Further, the minimal inhibitory concentration (MIC) in the test with Candida albicans is 32 µg/mL (≈ 62.4 µM); in [2] it was 64 µg/mL (≈ 125 µM); in the test on Staphylococcus aureus it was > 100 µg/mL; in the test with Escherichia coli it was 2 µg/mL (≈ 3.9 µM); in the test on Pseudomonas aeruginosa, 64 µg/mL (≈ 125 µM); in [6], 32 µg/mL (≈ 62.4 µM). Also, the values for the minimal inhibitory concentration (MIC) (with Klebsiella pneumoniae; against Aspergillus niger; in test [8]) were > 100 µg/mL, 32 µg/mL (≈ 62.4 µM) and 32 µg/mL (≈ 62.4 µM), respectively. Further, the Activity in [3] is 21.5%; in test [4], 24.6%.

These data come from ChEMBL document CHEMBL3872243, “Synthesis of new morpholine-connected pyrazolidine derivatives and their antimicrobial, antioxidant, and cytotoxic activities” (2017).
